We go through one compound from publication PMC2784364, “VX-166: a novel potent small molecule caspase inhibitor as a potential therapy for sepsis” (Critical Care, 2009).

One data set deals with Jurkat cells. Put plainly: Staurosporine induced apoptosis in Jurkat cells, Annexin V. The settings on record: Human Jurkat cell line/Annexin V, n = 4, read-out: IC50, inhibition of apoptosis. Type of data set: cell-based. The protocol: Jurkat cells were obtained from LGC Standards (Teddington, UK) and were grown in RPMI 1640, 10% FCS, 2 mM L-glutamine, 100 U/ml penicillin and 0.1 mg/ml streptomycin (all from Sigma Aldrich Ltd., Poole, UK) at 37°C in 5% CO2/95% humidity. Receptor- or stress-mediated apoptosis (2 × 10^5 cells/ml) was induced by addition of either anti-Fas antibody CH-11 (10 ng/ml, Millipore UK Ltd., Watford, UK), TNF-α (20 ng/ml, R&D Systems, Abingdon, UK) with cycloheximide (112 ng/ml, Sigma Aldrich Ltd., Poole, UK) or staurosporine (350 ng/ml, Sigma Aldrich Ltd., Poole, UK). VX-166 was diluted into DMSO (10 mM), further diluted in media and added at a range of concentrations. Cells were then incubated for 18 hours. Apoptotic cells were then labelled with Cy5-conjugated Annexin-V (BD Biosciences, Oxford, UK) and detected using a FMAT™ 8100 Fluorimetric Microassay Technology Reader (Applied Biosystems, Warrington, UK). For the experiments using anti-Fas antibody, apoptosis was additionally measured using a Cell Death Detection ELISA kit (Roche Diagnostics Ltd., Lewes, UK) following the manufacturer's instructions.

The subject of data set [1] is IL-18 release from peripheral blood mononuclear cells. Nature of the data set: IL-18 release from SAC-treated PBMC. It is filed as cell-based. The settings on record: overnight. As for the experimental part:
(§1) Peripheral blood mononuclear cells (PBMC) from healthy donors were isolated by Ficoll-Paque gradient centrifugation from buffy coats obtained from the National Blood Transfusion Service (Bristol, UK). For IL-1β release, 5 × 10^5 cells/ml were then stimulated with 50 ng/ml lipopolysaccharide (LPS) from Escherichia coli (Sigma-Aldrich Ltd., Poole, UK) in the presence or absence of VX-166 and incubated for 18 hours. Secretion of IL-1β into the supernatant was determined by ELISA (R&D Systems, Abingdon, UK) following the manufacturer's instructions. For IL-18 release, 7.5 × 10^5 cells/ml were stimulated with 6.25 × 10^-4% (w/v) Staphylococcus aureus cell suspension (SAC; Sigma-Aldrich Ltd., Poole, UK) in the presence or absence of VX-166 and incubated overnight. The IL-18 content in the supernatants was quantified by ELISA (Caltag-MedSystems Ltd., Buckingham, UK) following the manufacturer's instructions. In both assays PBMC viability was assessed after the 18 hours incubation time using MTS assay (Promega UK Ltd., Southampton, UK) to ensure that the reduction in cytokine release was not caused by a cytotoxic effect of the compound.

For a further data set, the system named is PBMC. Put plainly: PBMC viability (MTS assay). Type of data set: cell-based, human. The settings on record: MTS assay conducted simultaneously with cytokine release assays. The protocol:
as §1

In data set [2] the test system is IL-2 release from peripheral blood mononuclear cells. Put plainly: IL-2 release from anti-CD3/CD28 stimulated PBMC. It is filed as cell-based, human. The settings on record: at 100 μM. The protocol: PBMC from healthy donors were isolated as described above. To the wells of a 96-well plate previously coated with 1.5 μg/ml anti-hCD3 (Serotec, Kidlington, UK), 5 × 10^5 cells/ml and 1 μg/ml anti-hCD28 (BD Biosciences, Oxford, UK) were added. Plates were then incubated for 24 hours in the presence or absence of VX-166 or the calcineurin inhibitor FK506 (Merck Biosciences Ltd., Nottingham, UK). IL-2 release into the supernatant was subsequently determined by ELISA (R&D Systems, Abingdon, UK) following the manufacturer's instructions.

Another data set has as its system CD-1 mice. Put plainly: Endotoxic shock in the mouse (LPS 20 mg/kg iv), survival. Type of data set: in vivo. As for the experimental part: Endotoxic shock studies were approved by the Vertex Pharmaceuticals Institutional Animal Care and Use Committee. Adult male CD-1 mice (weighing 30 to 32 g; Charles River Laboratories, Wilmington, MA, USA) were administered LPS (from E. coli serotype 0111:B4, Sigma-Aldrich, St. Louis, MO, USA) at 20 mg/kg iv and survival was monitored for 96 hours (n = 28 per group). VX-166 or vehicle (10% propylene glycol: 90% sodium phosphate buffer pH 8) were administered by repeat iv bolus at 0 hours (co-injection with LPS), 4, 8 and 12 hours post-LPS. VX-166 was administered at 1, 3, 10 or 30 mg/kg.

The test system of the next data set is Sprague-Dawley rats. Put plainly: Caecal ligation and puncture in the rat, survival. It is filed as in vivo. The settings on record: rat CLP; for survival at day 10: control 40%. As for the experimental part:
CLP studies were performed in accordance with the National Institutes of Health guidelines for the use of experimental animals and were approved by the Institutional Animal Care and Use Committee of the Feinstein Institute for Medical Research. Adult male Sprague-Dawley rats (weighing 275 to 325 g, Charles River Laboratories, Wilmington, MA, USA) were fasted overnight then anaesthetised with isoflurane. The caecum was exposed via a 2 cm midline incision. It was ligated just distal to the ileocaecal valve, then punctured twice with an 18-gauge needle and gently squeezed to release a small amount of faecal material to ensure patency of the perforation sites before the abdominal incision was closed. Sham-operated rats underwent the same procedure with the exception that the caecum was neither ligated nor punctured. Animals received subcutaneous fluids (30 ml/kg saline) immediately after the procedure. No antibiotics were administered. In the 7 and 10 day survival studies animals were re-anaesthetised 20 hours after CLP, the perforated caecum was removed and the abdominal cavity washed twice with 40 ml of warm, sterilised saline. The abdominal cavity was closed, anaesthetics withdrawn and rats returned to their cages where they were allowed free access to food and water. In the 20 hour endpoint study the caecum was not removed. In this study blood samples were collected by cardiac puncture under terminal anaesthesia into heparinised syringes for the subsequent measurement of IL-1β and bacterial endotoxin, while the thymus was removed for analysis of thymocyte apoptosis.
Alzet® mini-osmotic pumps (Durect Corporation, Cupertino, CA, USA) were used for continuous delivery of VX-166 or vehicle (25% dimethyl sulphoxide: 75% propylene glycol). Pumps with a 2 ml reservoir capacity and a 10 μl//h delivery rate were used in all studies. These pumps are designed to deliver for seven days and so would have expired two to three days before the end of the 10 day survival studies. The mini-osmotic pumps were filled with VX-166 (5 to 25 mg/ml or vehicle) and primed overnight at 37°C prior to subcutaneous implantation in anaesthetised rats. The 25 mg/ml concentration of VX-166 equates to an approximate dose of 0.83 mg/kg/h for a 300 g rat. The pumps were implanted immediately following CLP, except in the delayed onset of treatment study in which pumps were implanted either immediately following CLP (0 hour) or 3 or 8 hours following CLP. Sham-operated rats were implanted with vehicle filled mini-osmotic pumps.

Read-outs that look alike come from different tables or passages of the source. Bounds are passed on as bounds.

For the compound `CCC(C(=O)NC(CC(=O)O)C(=O)COc1c(F)c(F)cc(F)c1F)n1cccc(NC(=O)OC)c1=O` (stereo not shown) [VX-166], the half-maximal inhibitory concentration (IC50) was 255 ± 155 nM with Jurkat cells; below 500 nM in data set [1] (Homo sapiens, PBMC, n = 4, read-out: IC50 ± SD, inhibition of IL-18 release); 450 ± 170 nM in data set [1] (SAC-treated human PBMC, n = 4, read-out: IC50 ± SD, inhibition of IL-18 release). The “cytotoxic effect in PBMC viability assay” value in the data set with PBMC is recorded as “not due to a cytotoxic effect”. In data set [2], the “inhibition of T-cell activation in vitro” value is “partial inhibition”. The “survival rate at 96 hours compared with vehicle control” value in the data set on CD-1 mice (LPS 20 mg/kg iv, 30 mg/kg iv at 0, 4, 8, 12 hours) was “more than doubled”. Besides, the “survival over 96 hours” value in the data set with CD-1 mice (LPS 20 mg/kg iv, 1, 3, 10 or 30 mg/kg repeat iv bolus at 0, 4, 8 and 12 hours post-LPS, vs vehicle) was “significantly improved survival in a dose-dependent fashion”. In addition, in the data set on CD-1 mice (different batch of LPS, 30 mg/kg iv at 0, 4, 8, 12 hours, P < 0.0001), the “survival compared with vehicle control, second study” value was “substantially improved survival”. For the same compound, the “survival over 10 days compared with vehicle control, second study” value in the data set with Sprague-Dawley rats (25 mg/ml mini-osmotic pump immediately after CLP, n = 16) is recorded as “improved survival”. In addition, the “survival at day 7” value with Sprague-Dawley rats (25 mg/ml mini-osmotic pump implanted immediately following CLP, n = 12, control 25%) is given as 67%. In addition, the “survival at day 10” value in the data set with Sprague-Dawley rats (25 mg/ml pump started 0 hours after CLP, n = 12, P = 0.026) stood at 83%; in the data set on Sprague-Dawley rats (25 mg/ml pump started 3 hours after CLP, n = 12, P = 0.009), 92%; in the data set with Sprague-Dawley rats (25 mg/ml pump started 8 hours after CLP, n = 12, P = 0.19), 66%.
